According to patent US20160058738A1, “PHARMACEUTICAL COMPOSITION FOR PREVENTING OR TREATING OVARY GRANULOSA CELL TUMORS CONTAINING GLYCOGEN SYNTHASE KINASE-3 BETA INHIBITOR AS ACTIVE INGREDIENT, AND FUNCTIONAL HEALTH FOOD COMPOSITION” (CHUNG-ANG UNIVERSITY INDUSTRY-ACADEMIC COOPERATION …, priority 2013, published 2016):

Legend:
[1] = system: phosphorylation of the FOXL2 S33 residue; experiment: Western blotting of the phosphorylation of the FOXL2 S33 residue after kinase inhibitor treatment; assay type: cell-based, human; conditions: 10 μM inhibitor, KGN cells overexpressing FOXL2 WT
Experimental: The cultured cells were harvested, and a protein was extracted from the cells using a Nonidet P-40 (NP-40) solution. For quantification of the extracted protein, a Bicinchoninic acid (BCA)™ protein assay was performed. The quantified protein was transferred to a polyvinylidene fluoride (PVDF) membrane by SDS-PAGE electrophoresis, and incubated with an antibody for each protein to be detected. Afterward, the proteins were detected using secondary antibodies and a ChemDoc system.
While the FOXL2 WT was overexpressed in the KGN cells, the cells were treated with 10 μM of the inhibitor of each kinase, cultured for 18 hours and sampled, and then a change in phosphorylation was measured by performing western blotting. Here, the change in phosphorylation was measured using an antibody specifically binding to a peptide consisting of an amino acid of SEQ. ID.
To confirm whether an inhibitory effect of GSK3beta on the FOXL2 S33 residue is a GSK3beta-specific effect, cells in which FOXL2 WT was overexpressed were treated with 10 μM each of AR-A014418 and TWS1119, which are two different GSK3beta inhibitors, sampled, and analyzed by western blotting. Here, AR-A014418 contains a compound represented by Formula 2.

[2] = system: KGN cells stably expressing FOXL2; experiment: Efficacy on tumor induced by KGN cells in nude mice; assay type: in vivo, BALB/c-nu mice; conditions: 2 mg/kg injected directly into tumor-induced region 10 times for two weeks, starting three weeks after cell injection
Source text: 6-week-old mature male BALB/c-nu mice were purchased from Central Laboratory Animal, Inc., and allowed for one week to be adapted to environments of the breeding facility and the laboratory in the Chung-Ang University Laboratory Animal Research Center to ensure that the mice had no general symptoms, prior to being used for the experiment. The animals were housed at a density of five mice per polycarbonate cage, and solid food for laboratory animals and water were freely provided. The environments for the breeding laboratory including a temperature, humidity, a ventilation cycle, a light/dark cycle, and illuminance were constantly maintained, and all the experiments were conducted in accordance with the regulation of the Chung-Ang University Animal Research Ethics Committee.
3×10^7 of KGN cells stably expressing FOXL2 were subcutaneously injected into each mouse to induce a tumor. Three weeks after the injection, the GSK3beta inhibitor (AR-A014418) was directly injected into a tumor-induced region at 2 mg/kg 10 times for two weeks and then a tumor size was measured, and the result is shown in FIG. 14.

[3] = system: cells in which the FOXL2 protein was overexpressed; experiment: Experiment for cell growth rate; assay type: cell-based, human; conditions: for cell growth rate of the C134W mutant: cells overexpressing FOXL2 C134W mutant
Experimental: After the cells in which the FOXL2 protein was overexpressed were treated with a GSK3beta inhibitor (AR-A014418), a cell growth rate according to time was measured, and the result is shown in FIG. 13.

[4] = system: FOXL2 protein; experiment: Experiment for protein stability (cyclohexamide chase, western blotting); assay type: cell-based, human; conditions: FOXL2-overexpressing cells, then 10 μg cyclohexamide, sampled at 0, 6, 12, 24 hours
Experimental: The cultured cells were harvested, and a protein was extracted from the cells using a Nonidet P-40 (NP-40) solution. For quantification of the extracted protein, a Bicinchoninic acid (BCA)™ protein assay was performed. The quantified protein was transferred to a polyvinylidene fluoride (PVDF) membrane by SDS-PAGE electrophoresis, and incubated with an antibody for each protein to be detected. Afterward, the proteins were detected using secondary antibodies and a ChemDoc system. To confirm whether the effect of decreasing the cell viability by inducing the activity of a specific promoter such as TNFR1, FAS, Caspase8 and p21 induces regulation of FOXL2 protein stability by the phosphorylation of the FOXL2 S33 residue, cells in which a FOXL2 protein was overexpressed were treated with a GSK3beta inhibitor (SB 216763) and expressed, treated with 10 μg of cyclohexamide which is a protein synthesis inhibitor, and then sampled at 0, 6, 12, and 24 hours to perform western blotting, and the result is shown in FIG. 12.

| SMILES | phosphorylation of the FOXL2 S33 residue [1] | phosphorylation of the FOXL2 S33 residue ([1]; listed as Formula 2) | size of the tumor induced in the ovarian GCT cells [2] | size of the tumor induced in the ovarian GCT cells ([2]; listed as Formula 2) | cell growth rate ([3]; FOXL2-overexpressing cells, growth rate according to time) | cell growth rate of the C134W mutant [3] | cell growth rate of the C134W mutant ([3]; listed as Formula 2) | phosphorylation of the FOXL2 S33 residue ([1]; listed as Formula 1) | FOXL2 protein stability [4] |
| --- | --- | --- | --- | --- | --- | --- | --- | --- | --- |
| Nc1cccc(-c2cc3c(Oc4cccc(O)c4)ncnc3[nH]2)c1 [TWS1119] | reduced | – | – | – | – | – | – | – | – |
| COc1ccc(CNC(=O)Nc2ncc([N+](=O)[O-])s2)cc1 [AR-A014418, N-[(4-Methoxyphenyl)Methyl]-N′-(5-nitro-thiazol-2-yl)urea] | reduced | decreased | remarkably decreased | decreased | decrease | remarkably decreased | decreased | – | – |
| Cn1cc(C2=C(c3ccc(Cl)cc3Cl)C(=O)NC2=O)c2ccccc21 [SB 216763, 3-(2,4-Dichlorophenyl)-4-(1-methyl-1H-indol-3-yl)-1H-pyrrole-2,5-dione] | reduced | – | decreased | – | – | decreased | – | decreased | increased |
